For three compounds, Minimum toxic dose, inhibition and inhibition in vivo results are on record in patent US5332733A, “Heterocyclically substituted piperazinoakylbenzoxazine and piperazinoalkylbenzothiazine compounds, processes for preparing them, and medicaments containing them” (Kali-Chemie Pharma GmbH, priority 1990, dated 1994).

The subject of one series is mice. The conditions noted are these: mouse, in vivo, 1440 min. On the procedure:
2. Determination of Minimum Toxic Dose
Maximum doses of 300 mg/kg of the test substance were administered orally to male mice weighing 20-25 g. The animals were observed carefully for 3 hours for toxicity symptoms. In addition, all symptoms and deaths were recorded over a period of 24 hours after administration. Associated symptoms were also observed and recorded. If death or severe toxic symptoms were observed, additional mice were administered increasingly lower doses. The lowest dose which produced death or severe toxic symptoms is given in the following Table B as the minimum toxic dose.

In another series the target is T1, histamine-(H1)-receptor (Cavia porcellus, UniProt P31389).
T1 construct: Segments of the ileum 1.5 cm long from Dunkin Hartley guinea pigs; from tissue; host or cells: isolated ileum of Dunkin Hartley guinea pigs
T1 sequence (P31389 whole entry): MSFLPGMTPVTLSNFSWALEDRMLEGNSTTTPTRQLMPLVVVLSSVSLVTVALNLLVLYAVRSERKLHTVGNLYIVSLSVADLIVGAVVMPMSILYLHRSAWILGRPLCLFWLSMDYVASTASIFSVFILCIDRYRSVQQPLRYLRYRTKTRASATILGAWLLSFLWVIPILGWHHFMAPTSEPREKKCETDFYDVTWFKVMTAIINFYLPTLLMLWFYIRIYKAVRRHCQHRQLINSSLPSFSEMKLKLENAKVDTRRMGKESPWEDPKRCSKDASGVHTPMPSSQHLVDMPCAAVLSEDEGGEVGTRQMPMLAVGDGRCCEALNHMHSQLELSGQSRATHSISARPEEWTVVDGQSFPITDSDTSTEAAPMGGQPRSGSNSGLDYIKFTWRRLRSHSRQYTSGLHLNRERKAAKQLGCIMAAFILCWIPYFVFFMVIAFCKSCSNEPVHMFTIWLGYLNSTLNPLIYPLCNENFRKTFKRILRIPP
Description: Histamine-(H1)-receptor antagonism in vitro, histamine-induced contractions of isolated ileum. Type of series: cell-based, guinea pig (Dunkin Hartley). The note with it: test substance 10^-6 mole/l, histamine 5 × 10^-6 mole/l. Here is the method: 3. Investigation of Anti-Histamine-(H1) Effect Based on Histamine-(H1)-Receptor Antagonism In Vitro
To investigate the histamine-(H1)-receptor antagonism of the test substances, the inhibiting effect of the substances on histamine-induced contractions of the smooth muscle was determined in vitro on the isolated organ. Isolated strips of organ from the ileum are suitable for this purpose. In an organ bath of physiological saline solution the smooth muscle strips react to the addition of histamine by contracting. […] The extent of regression of the contraction is an indication of the anti-histamine-(H1) activity of the compounds. The investigation was carried out analogously to the method originally described by Magnus (Pfluegers Arch. 102, 123 (1904)).
Procedure for determining the smooth muscle contraction inhibiting effect on isolated guinea pig ileum induced by a 5×10^-6 molar histamine concentration
Segments of the ileum 1.5 cm long from Dunkin Hartley guinea pigs having a body weight of 300 500 g were used for the test. Each strip was placed in an organ bath of 10 ml of physiological saline solution according to Krebs-Henseleit and attached to a conventional apparatus for isotonic measurement of changes in length of the ileum strips (automated Celaster measuring apparatus), so that the tissue was under 1 g of tension. The bath was kept at a pH of 7.4 and gassed with a mixture of 5% CO2 and 95% O2. After an equilibration phase, an isotonic contraction of the tissue was induced by adding histamine in a final concentration of 5×10^-6 mole/liter and washing it out again after a contact time of 30 seconds. Only tissues samples from which three reproducible contractions were obtained at 10 minute intervals were used in the subsequent test. The test substances were then added in a final concentration of 10^-6 mole/liter, and after 30 seconds contact time histamine was again added up to a concentration of 5×10^-6 mole/liter. The resulting contractions were measured over 30 seconds. The tissue was then washed several times over a period of 10 minutes. Histamine was then added again to stimulate a contraction. The resulting contractions were again measured over 30 seconds. The difference between the amplitude of the contraction obtained by histamine addition alone and the amplitude of the contraction obtained in the presence of the test substance was determined and expressed in terms of % inhibition.
The inhibiting effects on the contractions induced by histamine 30 seconds after administration of the test substance and on the contractions induced by the addition of histamine 10 minutes later are listed in the table.

Series [1] concerns PAF-induced aggregation of rabbit blood platelets. In words: Anti-PAF activity in vitro, PAF-induced platelet aggregation. The class given is cell-based, rabbit (New Zealand hybrids). The note with it: Oryctolagus cuniculus, test substance 10^-5 mole/l, pH 7.4. An excerpt: 4. Determination of Anti-PAF Activity In Vitro
PAF (=Platelet Activating Factor) is a phospholipid mediator which has many effects. Activation of platelet aggregation induces protracted broncho-contraction and hyper-reactivity of the air paths.
In this test the effect of the test substances on platelet aggregation induced by adding PAF to a suspension of platelets obtained from rabbit blood is investigated using the method described by Mikashima et al. (Jap. J. Pharmacol. 44 (1987) 387-391).
A suspension of platelets obtained from rabbit blood containing 4×10^9 platelets/ml in a modified Tyrode buffer solution (=Tyrode solution with 1.3 mM/l CaCl2 and 2.5 g/l gelatine added) adjusted to pH 7.4 was used. Tyrode solution is an aqueous solution containing 136.9 mmoles NaCl, 2.68 mmoles KCl, 2.31 mmoles CaCl2, 1.0 mmole MgCl2, 11.9 mmoles NaHCO3, 1.45 mmoles NaH2 PO4 and 5.55 mmoles glucose per liter. The platelets were obtained from 10 ml blood samples from each of three rabbits (New Zealand hybrids, body weight 3-4 kg). For this the blood samples were treated with ethylenediamine tetraacetic acid and washed according to the method of Artley et al. (Brit. J. Hematol. 19 (1970), 7-17). A platelet-rich plasma was then initially separated by centrifuging (20 minutes at 400×g). The blood platelets were separated from the plasma by recentrifuging for 15 minutes at 1,400×g. The platelets remaining as sediment after centrifuging were resuspended in a Tyrode buffer solution (but without calcium). 0.4 mmole of lysine acetylsalicylate was then added, and after 15 minutes the platelets were sedimented again. The sediment was resuspended in the aforementioned modified Tyrode buffer solution, and the number of platelets in the resulting suspension was adjusted to the desired content.
A 40×10^-9 molar PAF solution was used as a reagent. This solution was made from a 1.8×10^-3 molar stock solution in chloroform. For this purpose a 10 μl sample of the stock solution was evaporated to dryness and redissolved in 180 μl of the modified Tyrode solution to which 0.25% of lipid-free bovine serum albumin had been added. From this 10^-5 molar working solutions were then prepared and stored frozen. Samples of these solutions were appropriately diluted for the tests.
To carry out the test 50 μl of the platelet suspension and 10 μl of a 40×10^-5 molar solution of the compound being investigated were added with stirring (1,000 rpm) to 330 μl of the modified Tyrode buffer solution in an aggregation tube provided with a small magnetic stirrer. This corresponds to a final test substance concentration of 10^-5 mole/l. After 90 seconds preincubation time, 10 μl of the PAF preparation were added. The aggregation occurring in the aggregation tubes was measured over 4-5 minutes with the aid of a computerized aggregometer.
The aggregation which occurred in test tubes containing only platelet suspension was evaluated as 0%, whereas the aggregation which occurred in test tubes containing platelet suspension and PAF preparation was evaluated as 100%. The aggregation which still occurred during the inhibition of the PAF induced platelet aggregation due to the addition of the test substances was measured, and the resulting aggregation inhibition was calculated therefrom in %.

The test system of series [2] is passive cutaneous anaphylaxis (PCA). Description: Inhibition of passive cutaneous anaphylaxis (PCA) in rats. Type of series: in vivo, Sprague-Dawley rats. The note with it: Rattus norvegicus, 1 h, 2 × 10^-5 mole/kg per os, one hour before ovalbumin challenge. On the procedure:
(§1) 1. Determining Inhibition of Passive Cutaneous Anaphylaxis (PCA) and Histamine-Induced Anaphylactoid Cutaneous Reaction
The PCA reaction is carried out following the methods described by Goose et al. (J. N. Immunology 16 (1969), 749) and by Martin et al. (Arch. Pharmacol. 316 (1981), 186).
The IgE-rich ovalbumin antiserum used in the test was obtained from immunized Brown-Norway rats. The were immunized with an intraperitoneal injection of a mixture of 100 μg of ovalbumin with a Bordetella pertussis suspension (Vaxicoq™, Manufactured by Institute Merieux, containing 5×10^9 organisms and 1.25 mg Al(OH)3). After 20 days the animals were re-immunized with a further intraperitoneal injection of a solution of 10 μg ovalbumin in 0.5 ml physiological saline solution. After a further four days the blood was removed from the animals and centrifuged. The resulting antiserum was stored at -20° C. until use.
(§2) The inhibition of the passive cutaneous anaphylaxis and of the anaphylactoid cutaneous reaction induced by histamine was determined as follows:
(§3) Sprague-Dawley rats having a body weight of 150-180 g were injected intradermally in one flank with 50 μl of a 1:75 dilution of the IgE-rich ovalbumin antiserum in physiological saline solution to passively sensitize them to ovalbumin.
(§4) 24 hours after sensitization a solution of 8.25 mg/kg of ovalbumin and 26.4 mg/kg of a blue dye (Evans's Blue) was administered to the rats intravenously according to Martin et al. to trigger passive cutaneous anaphylaxis.
(§5) On the day of the experiment the test substances were dissolved in distilled water which contained 1 vol. % dimethylformamide and 1 vol. % of Tween™ 20 (=polyoxyethylene (20) sorbitan monolaurate). One hour before administration of the ovalbumin challenge, each animal was orally administered 2×10^-5 mole/kg of test substance in 0.5 ml of solution. For comparison purposes a control group received only the solvent.
(§6) The edematous anaphylactic (PCA) and anaphylactoid (histamine-induced) reactions caused by the stimulation of the intravenous ovalbumin injection, which manifested themselves by edema formation, swelling and exudation of blue dye, were evaluated 30 minutes after their initiation by the intravenous ovalbumin injection. This was done by visually determining the extent to which the blue dye emerged at the sites of edema formation. The percentage inhibition of anaphylactic and anaphylactoid reactions induced by the test substances in comparison with the reactions of the control animals not treated with any test substance was determined using comparison scales.
(§7) The results obtained using compounds of formula I according to the foregoing test methods are shown in the following Table A. The example numbers given for the compounds of formula I relate to the subsequent preparative examples.

The test system of series [3] is histamine-induced anaphylactoid cutaneous reaction. In words: Inhibition of histamine-induced anaphylactoid cutaneous reaction in rats. Type of series: in vivo, Sprague-Dawley rats. The conditions noted are these: Rattus norvegicus, 1 h, 2 × 10^-5 mole/kg per os, one hour before ovalbumin challenge. Here is the method:
as §1, §2, §3, §4
To determine the histamine-induced anaphylactoid skin reaction, the animals are injected intradermally in the flank opposite to the antiserum administration with 50 μl of a physiological saline solution containing 0.8 mg/ml histamine directly before the intravenous injection of the solution containing the ovalbumin and the blue dye.
as §5, §6, §7

Where [4] appears, read: 0.5 min, after 30 seconds, read-out: % inhibition of histamine-induced ileum contractions after 30 seconds.
[5] abbreviates: 10 min, after 10 minutes (after washing), read-out: % inhibition of histamine-induced ileum contractions after 10 minutes.

SMILES strings stand for the structures. Read-outs that look alike come from different tables or passages of the source.

In general, inhibition refers to how much of the control response was suppressed. `Cc1ccnc(N2CCN(CCCCC3Sc4ccccc4NC3=S)CC2)c1` (stereo not shown) [Example 2, 2-{4-[4-(4-methylpyridin-2-yl)-piperazin-1-yl]butyl}-2H-1,4-benzothiazine-3(4H) -thione]: the Minimum toxic dose in the series with mice is listed as above 300 mg/kg. The results for the inhibition at 1 µM at histamine-(H1)-receptor (setting [4]) and at histamine-(H1)-receptor (setting [5]) were 51% and 60%, respectively. In series [1], this compound had an inhibition at 10 µM of 60%.
For orientation: inhibition in vivo means the change of the read-out against control, counted positive when it falls. A lower inhibition in vivo goes with little suppression. For the compound `COc1cccc(N2CCN(CCCCC3Sc4ccccc4NC3=O)CC2)n1` (stereo not shown) [Example 16], the results for the inhibition in vivo at 20 µmol/kg in series [2] and in series [3] were 50% and 45%, respectively. For the same compound, in the series on mice, the Minimum toxic dose is on record as 300 mg/kg. Besides, the inhibition at 1 µM turned out to be 30% on histamine-(H1)-receptor (setting [4]) and 27% at histamine-(H1)-receptor (setting [5]).
On to `Cc1ccnc(N2CCN(CCCC3Oc4ccc(C)cc4NC3=O)CC2)c1` (stereo not shown) [Example 22], for which the inhibition in vivo at 20 µmol/kg in series [2] is 69%; in series [3] it was 45%. This compound also returned a Minimum toxic dose in the series with mice of 300 mg/kg. The inhibition at 10 µM in series [1] came out at 42%.
